T/C data for 17 molecules are collected here from PubChem BioAssay AID330 (DTP/NCI, 2004).

For this experiment, the system named is P388 leukemia ip, CD2F1 mice, survival T/C. Put plainly: NCI In Vivo Anticancer Drug Screen. Data for tumor model P388 Leukemia (intraperitoneal) in CD2F1 (CDF1) mice. The conditions noted are these: endpoint: median survival time, higher = longer survival. The gist of the method: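 Mice carrying the transplanted tumor received test compound or vehicle. Survival was recorded in each group, and the value is the treated-group measurement divided by that of the vehicle-treated control group.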

The mark [1] stands for this setting: dose: 50.0 mg/kg/injection, schedule: Q01DX005 (ip), vehicle: saline.
[2] abbreviates: dose: 100.0 mg/kg/injection, schedule: Q01DX005 (ip), vehicle: saline.
[3] abbreviates: dose: 200.0 mg/kg/injection, schedule: Q01DX005 (ip), vehicle: saline.
Setting [4] is: dose: 12.5 mg/kg/injection, schedule: Q01DX009 (ip), vehicle: other.
Setting [5] is: dose: 25.0 mg/kg/injection, schedule: Q01DX009 (ip), vehicle: other.
[6] abbreviates: dose: 50.0 mg/kg/injection, schedule: Q01DX009 (ip), vehicle: other.
Where [7] appears, read: dose: 100.0 mg/kg/injection, schedule: Q01DX009 (ip), vehicle: other.
Setting [8] is: dose: 200.0 mg/kg/injection, schedule: Q01DX009 (ip), vehicle: other.
The mark [9] stands for this setting: dose: 50.0 mg/kg/injection, schedule: Q01DX005 (ip), vehicle: saline with Tween-80.
Setting [10] is: dose: 100.0 mg/kg/injection, schedule: Q01DX005 (ip), vehicle: saline with Tween-80.
Setting [11] is: dose: 60.0 mg/kg/injection, schedule: Q01DX005 (ip), vehicle: saline with Tween-80.
Setting [12] is: dose: 120.0 mg/kg/injection, schedule: Q01DX005 (ip), vehicle: saline with Tween-80.
[13] abbreviates: dose: 240.0 mg/kg/injection, schedule: Q01DX005 (ip), vehicle: saline with Tween-80.

Several values for one entry are separate records, joined by “and”; a condition that tells them apart may be missing. Identical values can stand only once. Toxic doses and inconclusive results are not listed.

As to `Cc1cccc(CO)c1-c1c(C)cccc1CO`, the T/C reads like this: (dose: 50.0 mg/kg/injection, schedule: Q01DX005 (ip), vehicle: Klucel (hydroxypropylcellulose) (HPC)) 101 % of control; (dose: 100.0 mg/kg/injection, schedule: Q01DX005 (ip), vehicle: Klucel (hydroxypropylcellulose) (HPC)) 108 % of control; (dose: 200.0 mg/kg/injection, schedule: Q01DX005 (ip), vehicle: Klucel (hydroxypropylcellulose) (HPC)) 100 % of control.
`O=c1c2ccccc2oc2cccc(NCCCN3CCN(CCCNc4cccc5oc6ccccc6c(=O)c45)CC3)c12`: the T/C (dose: 7.0 mg/kg/injection, schedule: Q01DX005 (ip), vehicle: saline with Tween-80) is 90 % of control.
As to `CN(C)CCNc1ccccc1[N+](=O)[O-]`, the T/C was 100 % of control (dose: 12.5 mg/kg/injection, schedule: Q01DX001 (ip), vehicle: saline); 100 % of control (dose: 25.0 mg/kg/injection, schedule: Q01DX001 (ip), vehicle: saline); 100 % of control (dose: 50.0 mg/kg/injection, schedule: Q01DX001 (ip), vehicle: saline).
For the molecule `O=c1[nH]c(=O)n(C2CC(O)C(CO)O2)cc1F` (stereo not drawn), the T/C was 163 % of control (dose: 10.0 mg/kg/injection, schedule: Q01DX010 (ip), vehicle: saline); 108 % of control (dose: 12.5 mg/kg/injection, schedule: Q04DX002 (ip), vehicle: water); 155 % of control (dose: 20.0 mg/kg/injection, schedule: Q01DX009 (ip), vehicle: saline); 181 % of control (dose: 20.0 mg/kg/injection, schedule: Q01DX010 (ip), vehicle: saline); 160 % of control (dose: 38.0 mg/kg/injection, schedule: Q01DX009 (ip), vehicle: saline); 117 % of control (dose: 40.0 mg/kg/injection, schedule: Q01DX009 (ip), vehicle: saline). For the same molecule, the T/C (dose: 40.0 mg/kg/injection, schedule: Q01DX010 (ip), vehicle: saline) is 222 % of control; the T/C (dose: 49.0 mg/kg/injection, schedule: Q01DX009 (ip), vehicle: saline) is 159 % of control and 167 % of control; the T/C under setting [1] is 114 % of control; the T/C (dose: 56.0 mg/kg/injection, schedule: Q01DX009 (ip), vehicle: saline) was 123 % of control; the T/C (dose: 75.0 mg/kg/injection, schedule: Q01DX009 (ip), vehicle: saline) is 185 % of control; the T/C (dose: 80.0 mg/kg/injection, schedule: Q01DX009 (ip), vehicle: saline) was 92 % of control. Also, the T/C was 110 % of control (dose: 100.0 mg/kg/injection, schedule: Q01DX001 (ip), vehicle: saline); 98 % of control under setting [2]; 103 % of control (dose: 110.0 mg/kg/injection, schedule: Q01DX009 (ip), vehicle: saline); 81 % of control (dose: 120.0 mg/kg/injection, schedule: Q01DX009 (ip), vehicle: saline); 83 % of control (dose: 180.0 mg/kg/injection, schedule: Q01DX009 (ip), vehicle: saline); 111 % of control (dose: 200.0 mg/kg/injection, schedule: Q01DX001 (ip), vehicle: saline). For the same molecule, the T/C was 95 % of control under setting [3]; 157 % of control (dose: 240.0 mg/kg/injection, schedule: Q04DX002 (ip), vehicle: saline); 168 % of control (dose: 350.0 mg/kg/injection, schedule: Q04DX003 (ip), vehicle: saline); 164 % of control (dose: 400.0 mg/kg/injection, schedule: Q04DX002 (ip), vehicle: saline); 100 % of control (dose: 400.0 mg/kg/injection, schedule: Q04DX003 (ip), vehicle: saline).
In the case of `COC(=O)C1C(C)(C)N=NC1(C)C`, the T/C under setting [4] is 113 % of control; the T/C under setting [5] was 115 % of control; the T/C under setting [6] was 105 % of control; the T/C under setting [7] is 103 % of control; the T/C under setting [8] is 108 % of control.
Regarding `CC(C)C(=O)NCCCCCN1CCCCC1`, the T/C runs as follows: under setting [1], 106 % of control; under setting [2], 99 % of control; under setting [3], 99 % of control.
`COc1ccc(C2CC(c3cc(C)cc(Br)c3O)=NO2)cc1` (stereo not drawn): the T/C was 93 % of control (dose: 100.0 mg/kg/injection, schedule: Q04DX002 (ip), vehicle: saline with Tween-80); 88 % of control (dose: 200.0 mg/kg/injection, schedule: Q04DX002 (ip), vehicle: saline with Tween-80); 92 % of control (dose: 400.0 mg/kg/injection, schedule: Q04DX002 (ip), vehicle: saline with Tween-80).
As for `O=C(Nc1nnc(-c2ccccc2)s1)c1cc(=O)c2ccccc2o1`, the T/C reads like this: under setting [9], 93 % of control; under setting [10], 96 % of control; (dose: 200.0 mg/kg/injection, schedule: Q01DX005 (ip), vehicle: saline with Tween-80) 92 % of control.
Regarding `O=c1[nH]c(Nc2ccccc2)c([N+](=O)[O-])c(=O)[nH]1`, the T/C is, setting by setting: under setting [11], 106 % of control; under setting [12], 107 % of control; under setting [13], 106 % of control.
Regarding `COc1ccc2c3c(c4ccccc4c2c1)C(=O)OC3=O`, the T/C was 87 % of control (dose: 25.0 mg/kg/injection, schedule: Q01DX005 (ip), vehicle: saline with Tween-80); 87 % of control under setting [9]; 109 % of control under setting [10].
In the case of `CCOC(=O)c1cc2c(OC)c(OC)ccc2cc1N`, the T/C is, setting by setting: under setting [4], 100 % of control; under setting [5], 103 % of control; under setting [6], 100 % of control; under setting [7], 115 % of control.
In the case of `CCc1ccccc1NC(=O)C(=O)CC(=O)CS(=O)(=O)c1ccc(C)cc1`, the T/C by setting is: under setting [11], 103 % of control; under setting [12], 100 % of control; under setting [13], 103 % of control.
With `C=C1CC=CC(C)(C)C12CC(Br)C(C)(Cl)CC2O` (stereo not drawn), the T/C (dose: 10.0 mg/kg/injection, schedule: Q01DX009 (ip), vehicle: Klucel (hydroxypropylcellulose) (HPC)) was 115 % of control; the T/C (dose: 20.0 mg/kg/injection, schedule: Q01DX009 (ip), vehicle: Klucel (hydroxypropylcellulose) (HPC)) is 109 % of control; the T/C (dose: 40.0 mg/kg/injection, schedule: Q01DX009 (ip), vehicle: Klucel (hydroxypropylcellulose) (HPC)) was 106 % of control.
With `CCCCCCCCCCC(=O)CCCCCC`, the T/C was 90 % of control under setting [6], 100 % of control under setting [7] and 109 % of control under setting [8].
As for `Cc1c2oc3c(C)ccc(C(=O)NC(C(=O)NC(C(=O)N(C)C)C(C)C)C(C)O)c3nc-2c(C(=O)NC(C(=O)NC(C(=O)N(C)C)C(C)C)C(C)O)c(N)c1=O` (stereo not drawn), the T/C was 101 % of control (dose: 0.05 mg/kg/injection, schedule: Q01DX009 (ip), vehicle: water); 100 % of control (dose: 0.1 mg/kg/injection, schedule: Q01DX009 (ip), vehicle: water); 100 % of control (dose: 0.2 mg/kg/injection, schedule: Q01DX009 (ip), vehicle: water); 108 % of control (dose: 0.4 mg/kg/injection, schedule: Q01DX009 (ip), vehicle: water); 110 % of control (dose: 0.8 mg/kg/injection, schedule: Q01DX009 (ip), vehicle: water); 99 % of control and 106 % of control (dose: 1.6 mg/kg/injection, schedule: Q01DX009 (ip), vehicle: water). Also, the T/C (dose: 3.2 mg/kg/injection, schedule: Q01DX009 (ip), vehicle: water) was 101 % of control; the T/C (dose: 6.4 mg/kg/injection, schedule: Q01DX009 (ip), vehicle: water) was 101 % of control; the T/C (dose: 12.8 mg/kg/injection, schedule: Q01DX009 (ip), vehicle: water) was 106 % of control.
On to `Cc1cc(Br)c(N)c(C(O)(C(F)(F)F)C(F)(F)F)c1`, for which the T/C by setting is: (dose: 50.0 mg/kg/injection, schedule: Q01DX009 (ip), vehicle: Klucel (hydroxypropylcellulose) (HPC)) 91 % of control; (dose: 100.0 mg/kg/injection, schedule: Q01DX009 (ip), vehicle: Klucel (hydroxypropylcellulose) (HPC)) 97 % of control; (dose: 200.0 mg/kg/injection, schedule: Q01DX009 (ip), vehicle: Klucel (hydroxypropylcellulose) (HPC)) 108 % of control.
On to `CC(C)(C)N=C(CCNC1CCCCC1)Nc1ccccc1Cl`, for which the T/C reads like this: (dose: 50.0 mg/kg/injection, schedule: Q01DX009 (ip), vehicle: saline with Tween-80) 100 % of control; (dose: 100.0 mg/kg/injection, schedule: Q01DX009 (ip), vehicle: saline with Tween-80) 109 % of control; (dose: 200.0 mg/kg/injection, schedule: Q01DX009 (ip), vehicle: saline with Tween-80) 101 % of control.
